Experimental data published in patent US12653776B2, “Methods of treatment of cancer by continuous infusion of coenzyme Q10” (priority 2013, dated 2026).
Read-outs that look alike come from different tables or passages of the source.

Columns and labels:
[1] = system: acute myeloid leukemia (KG1) cells; test: Acute myeloid leukemia (KG1) mouse model, survival; assay type: in vivo, mice
Method: Human acute erythro-leukemia (K562) and acute myeloid leukemia (KG1) cells (1×10^6) were injected intraperitoneally in immune-compromised mice. Engraftment was confirmed by complete blood counts, presence of anemia, and clinical assessment of animal behavior.
The mice (total n=120 for each model respectively) were randomized into four (n=30/group) treatment groups. Each treatment regimen was administered in a four week cycle with three weeks of treatment, one week off: • 1. Untreated (control) • 2. Coenzyme Q10 (4%, administered at 75 mg/kg, once/day by continuous infusion) • 3. Chemotherapy (cytarabine/AraC 25 mg/kg, 5×/week; and adriamycin/daunorubicin 5 mg/kg; 1×/wk) • 4. Coenzyme Q10 (4%, administered at 75 mg/kg, once/day by continuous infusion)+chemotherapy (cytarabine/AraC 25 mg/kg, 5×/week; and adriamycin/daunorubicin 5 mg/kg; 1×/wk)
All dosings were intravenous and followed a protocol of 3 week treatment followed by 1 week rest. Leukemia was monitored by pallor and blood smears, and hone marrow smears were performed post-mortem for analysis using Wright's stain. Survival results from the study of mice with acute erythroleukemia are show in FIG. 5. Day 1 is the first day of treatment with coenzyme Q10 and/or chemotherapy.

[2] = system: cancer cell lines HT-29, A549, Hep3B, MDA-MB231, SkBr-3, MCF7, MiaPaCa-2, SKOV-3, PC-3; test: Cancer cell line viability in vitro; assay type: cell-based; details: 100 μM coenzyme Q10; evident as early as 24 hours, increased progressively between 48 and 72 hours; all cell lines tested
Method: Various cancer cell lines were treated with coenzyme Q10 at 100 μM concentration to determine the effect on cancer cell viability. The cancer cell lines tested were HT-29 (colon), A549 (lung), Hep3B (liver), MDA-MB231 (breast), SkBr-3 (breast), MCF7 (breast), MiaPaCa-2 (pancreas), SKOV-3 (ovary), and PC-3 (prostate). Cell viability was measured between 24 and 72 hours. […] For example. […] The text at the bottom of the graph in FIG. 6 represents the gene mutation and mutation rate for each cell line. For example, the HT-29 cell line contains the APC mutation with a mutation rate of 126.

[3] = system: lung chloromas (MIA C51 clone); test: Lung chloroma rat model, survival; assay type: in vivo, rats; details: continuous infusion vs injection 3 times a day, 50 mg/kg per day
Text: The effect of dosing schedule of coenzyme Q10 was also investigated in rats bearing liver or lung chloromas. Rats were transplanted with liver or lung clones of malignant chloromas derived from a stable myelogenous leukemia (chloroleukemia) cell line, MIA C51 (see. e.g., Jimenez and Yunis (1987) Science 238: 1278-1280). The clones have been selected to home to and form tumors in the liver or lungs, respectively. Rats were randomized to receive either no treatment, injection 3 times a day with 40 mg/mL (4%) coenzyme Q10, or continuous infusion of 40 mg/mL (4%) coenzyme Q10 via an implanted pump, to deliver for each regimen a total dose of 50 mg/kg body weight per day. […] For example, at Day 189 in the liver chloroma model, 45 of 50 rats were alive in the continuous infusion treatment group compared with 26 of 50 rats alive in the injection treatment group. All control animals were dead at Day 30.

[4] = system: H522 human lung cancer cells; test: H522 human lung cancer rat model, survival; assay type: in vivo, rats
Method: The effect of coenzyme Q10 dosing regimens was further investigated in rats implanted with H522 human lung cancer cells. Rats were randomized to receive either no treatment (control), continuous infusion with coenzyme Q10, chemotherapy, or a combination of coenzyme Q10 and chemotherapy. The dose of coenzyme Q10 was 50 mg/kg per day over 24 hours and the concentration was 4%. The chemotherapy was repeated on a three week cycle as follows: week 1: I.V. Cyclophosphamide, 35 mg/kg, 1×/wk and I.V. Doxorubicin 2.5 mg/kg, 3×/wk; Weeks 2-3: no treatment.

[5] = Method: In the Phase 1a portion of the trial, patients who meet eligibility parameters receive 2 consecutive 48-hour infusions of coenzyme Q10 twice weekly on Monday and Wednesday (i.e., Days 1, 3, 8, 10, 15, 17, 22, and 24), essentially receiving coenzyme Q10 treatment for 96 hours per week of each 28-day cycle. At each dose level of Arm 1 and Arm 2, patients are treated for either 8 hours at minimum of outpatient monitoring or inpatient monitoring for the first 24-hrs of the first infusion of Cycle 1. All other treatments are administered in an outpatient setting. Dose limiting toxicities are assessed during Cycle 1.
The study is a standard 3+3 dose escalation design with the dose escalated in successive cohorts of 3 to 6 patients each. Toxicity at each dose level is graded according to National Cancer Institute Common Terminology Criteria for Adverse Events (CTCAE v4.02). Safety oversight is provided by the Cohort Review Committee (CRC). The CRC reviews and confirms all DLTs and monitor safety throughout the study (including Arm 2).
The 2 doses are administered over 4 consecutive days, i.e., the first dose on Monday-Wednesday and the second dose on Wednesday-Friday of each week. The study drug is administered undiluted via a central venous access device and the infusion rate is controlled by a programmable ambulatory infusion pump such as the CADD Prizm VIP (model 6101) ambulatory pump.
At each dose level of Arm 1 and Arm 2, patients are treated for either 8 hours at minimum of outpatient monitoring or inpatient monitoring for the first 24-hrs of the first infusion of Cycle 1. Patients are monitored for dose-limiting toxicity (DLT) or an AE that requires prolonged hospitalization. If no reaction to coenzyme Q10 develops, the patient will be discharged.
For the second dose of each week (i.e., on Days 3, 10, 17, and 24 of the cycle) the total dose volume are given over 48 hours with no loading dose as indicated in Table 6 below. Coenzyme Q10 Nanosuspension for Injection Dose Cohorts (Arm 1; Monotherapy).

[6] = system: chloroleukemia (MIA C51); details: IP
[7] = combination with gemcitabine, Dose level 1 (50 mg/kg)

For coenzyme Q10, the survival ([1]; coenzyme Q10 75 mg/kg/day continuous infusion + chemotherapy (cytarabine + daunorubicin) vs other groups incl. chemotherapy alone, p<0.00001) was “significant increase in survival”, the survival ([1]; coenzyme Q10 alone (4%, 75 mg/kg once/day by continuous infusion) vs chemotherapy (cytarabine + daunorubicin)) was “improved survival compared to chemotherapy” and the cell viability [2] was “decrease in cell viability”. The “effectiveness of continuous infusion regimen” value [3] was “much more effective than the injection regimen”, the animal survival ([4]; continuous infusion 50 mg/kg per day combined with chemotherapy (cyclophosphamide + doxorubicin)) was “more effective than either treatment alone” and the animal survival ([4]; continuous infusion alone, 50 mg/kg per day over 24 hours, 4%, vs cyclophosphamide + doxorubicin) was “more effective than chemotherapy alone”. For the same substance, the safety issues ([5]; combination with 5-Fluorouracil, Dose level 1 (50 mg/kg)) was “No 5FU-related issued”, the dose level evaluation ([5]; combination with 5-Fluorouracil, Dose level 2 (66 mg/kg)) was “Dose level cleared” and the safety issues ([5]; combination with docetaxel, Dose level 1 (50 mg/kg)) was “No docetaxel-related issued”. For the same substance, the “issues or DLTs” value ([5]; combination with docetaxel, Dose level 2 (66 mg/kg)) was “No issues or DLTs”, the “issues or DLTs” value ([5]; combination with docetaxel, Dose level 3 (kg mg/kg), evaluation ongoing) was “No issues or DLTs” and the “dose-limiting toxicity (DLT)” value [5, 7] was “no DLT”. For the same substance, the “thrombocytopenia (gemcitabine-related adverse event)” value [5, 7] was “Mild to moderate thrombocytopenia”, the bleeding events ([5]; continuous infusion protocol) was “No bleeding events were reported” and the coagulation abnormalities ([5]; continuous infusion protocol with aggressive pre-loading or treatment with Vitamin K) was “minimal coagulation abnormalities”. For the same substance, the overall safety ([5]; current dose levels, continuous infusion) was “safe at the current levels”, the “dose-limiting toxicity (DLT)” value ([5]; monotherapy Dose Level 1 (66 mg/kg), 9 subjects, grade 3 GGT) was 1 DLT and the “dose-limiting toxicity (DLT)” value ([5]; monotherapy Dose Level 2 (88 mg/kg), 4 subjects) was 0 DLT. For the same substance, the “dose-limiting toxicity (DLT)” value ([5]; monotherapy Dose Level 3 (110 mg/kg), 4 subjects, evaluation ongoing) was 0 DLT, the safety and tolerability ([5]; monotherapy and combination therapy, initial results) was “safe and well tolerated” and the triglycerides ([5]; no clinical significance) was “Transient elevation of triglycerides”. The “adverse events with increased infusion duration” value ([5]; vs four hour infusion at higher rate, expected at the end of the ongoing study) was “decrease adverse events”, the “survival in animals with metastasis to the lungs and liver” value ([6]; 50 mg/kg/day) was “significant increase in survival” and the “limb paralysis (paraplegia due to brain metastasis)” value ([6]; (St) mg/kg/day) was “complete resolution of limb paralysis”.
